Data reported in PubChem BioAssay (NCI).
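Interpolation was linear, between the two tested concentrations surrounding the appropriate level; five concentrations were tested over 48 hours in 96-well plates. At the TGI there is no net growth.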

Legend:
Assay in all cases: DTP human tumour cell line panel, 48 h
[1] = system: SN12C renal
[2] = system: SNB-75 CNS
[3] = system: HOP-62 NSCLC
[4] = system: OVCAR-8 ovarian
[5] = system: A498 renal
[6] = system: MALME-3M melanoma
[7] = system: UO-31 renal
[8] = system: MDA-MB-231 breast
[9] = system: BT-549 breast
[10] = system: SK-MEL-2 melanoma
[11] = system: HCC-2998 colon
[12] = system: K-562 leukemia
[13] = system: KM12 colon
[14] = system: SW-620 colon
[15] = system: HCT-116 colon
[16] = system: T-47D breast
[17] = system: SK-OV-3 ovarian
[18] = system: MDA-MB-435
[19] = system: SK-MEL-5 melanoma
[20] = system: NCI/ADR-RES ovarian
[21] = system: CAKI-1 renal
[22] = system: NCI-H226 lung
[23] = system: RPMI-8226 leukemia
[24] = system: OVCAR-3 ovarian
[25] = system: EKVX NSCLC
[26] = system: OVCAR-5 ovarian
[27] = system: SNB-19 CNS
[28] = system: MCF7 breast
[29] = system: PC-3 prostate
[30] = system: SR leukemia
[31] = system: LOX IMVI melanoma
[32] = system: UACC-62 melanoma
[33] = system: IGROV1 ovarian
[34] = system: U251 CNS
[35] = system: TK-10 renal
[36] = system: HOP-92 NSCLC
[37] = system: NCI-H23 lung
[38] = system: HT29 colon
[39] = system: SF-295 CNS
[40] = system: OVCAR-4 ovarian
[41] = system: NCI-H522 lung
[42] = system: SF-539 CNS
[43] = system: HL-60(TB) leukemia
[44] = system: DU-145 prostate
[45] = system: UACC-257 melanoma
[46] = system: MDA-N
[47] = system: RXF 393 renal
[48] = system: SK-MEL-28 melanoma
[49] = system: MOLT-4 leukemia
[50] = system: HS 578T breast
[51] = system: M14 melanoma
[52] = system: COLO 205 colon
[53] = system: ACHN renal
[54] = system: HCT-15 colon
[55] = system: A549 NSCLC
[56] = system: SF-268 CNS
[57] = system: 786-0 renal
[58] = system: CCRF-CEM leukemia
[59] = system: NCI-H460 lung

Which results are given for `CCCCCCCC(=O)OC[n+]1ccc(-c2c(COC(=O)NC(C)C)c(COC(=O)NC(C)C)c3n2CCC3)cc1`?
TGI [1]: > 100 µM; TGI [2]: > 100 µM; TGI [3]: > 100 µM; TGI [4]: > 100 µM; TGI [5]: 85.1 µM; TGI [6]: > 90.6 µM; TGI [7]: > 100 µM; TGI [8]: > 100 µM; TGI [9]: > 94.1 µM; TGI [10]: 47.1 µM; TGI [11]: > 100 µM; TGI [12]: > 100 µM; TGI [13]: > 100 µM; TGI [14]: 60.8 µM; TGI [15]: > 71.4 µM; TGI [16]: > 100 µM; TGI [17]: > 100 µM; TGI [18]: > 100 µM; TGI [19]: > 100 µM; TGI [20]: > 100 µM; TGI [21]: 62.7 µM; TGI [22]: > 100 µM; TGI [23]: 66.2 µM; TGI [24]: > 100 µM; TGI [25]: > 100 µM; TGI [26]: > 100 µM; TGI [27]: > 100 µM; TGI [28]: > 100 µM; TGI [29]: > 100 µM; TGI [30]: > 56 µM; TGI [31]: 54 µM; TGI [32]: 33.5 µM; TGI [33]: > 68.3 µM; TGI [34]: > 100 µM; TGI [35]: > 100 µM; TGI [36]: 83.8 µM; TGI [37]: > 100 µM; TGI [38]: > 100 µM; TGI [39]: > 100 µM; TGI [40]: > 100 µM; TGI [41]: > 59.6 µM; TGI [42]: > 66.3 µM; TGI [43]: 52.4 µM; TGI [44]: > 59.8 µM; TGI [45]: > 100 µM; TGI [46]: > 100 µM; TGI [47]: 49.9 µM; TGI [48]: > 100 µM; TGI [49]: > 59 µM; TGI [50]: > 100 µM; TGI [51]: > 100 µM; TGI [52]: > 100 µM; TGI [53]: 68.9 µM; TGI [54]: > 100 µM; TGI [55]: > 100 µM; TGI [56]: > 73.8 µM; TGI [57]: > 79.8 µM; TGI [58]: > 60.3 µM; TGI [59]: > 100 µM

Which results are given for `CO[C@H]1O[C@@H]2CO[C@@H](c3ccccc3)O[C@H]2[C@@H]2CC=CCC[C@]12O`?
TGI [1]: > 100 µM; TGI [2]: > 100 µM; TGI [3]: > 100 µM; TGI [4]: > 100 µM; TGI [5]: 92.7 µM; TGI [6]: 29.3 µM; TGI [7]: > 100 µM; TGI [8]: > 100 µM; TGI [9]: 69 µM; TGI [10]: > 100 µM; TGI [11]: 51.7 µM; TGI [12]: > 100 µM; TGI [13]: > 100 µM; TGI [14]: > 100 µM; TGI [15]: > 100 µM; TGI [16]: > 100 µM; TGI [17]: > 100 µM; TGI [18]: > 100 µM; TGI [19]: > 100 µM; TGI [20]: > 100 µM; TGI [21]: > 100 µM; TGI [22]: > 100 µM; TGI [23]: 90.1 µM; TGI [24]: > 100 µM; TGI [25]: > 100 µM; TGI [26]: > 100 µM; TGI [27]: > 100 µM; TGI [28]: > 100 µM; TGI [29]: > 100 µM; TGI [30]: > 100 µM; TGI [31]: > 100 µM; TGI [32]: > 100 µM; TGI [33]: > 100 µM; TGI [34]: > 100 µM; TGI [35]: > 100 µM; TGI [36]: > 100 µM; TGI [37]: > 100 µM; TGI [38]: > 100 µM; TGI [39]: > 100 µM; TGI [40]: > 100 µM; TGI [41]: 31 µM; TGI [43]: 67 µM; TGI [44]: > 100 µM; TGI [45]: > 100 µM; TGI [46]: > 100 µM; TGI [47]: > 100 µM; TGI [48]: > 100 µM; TGI [49]: 73.3 µM; TGI [50]: 18.2 µM; TGI [51]: > 100 µM; TGI [52]: > 100 µM; TGI [53]: > 100 µM; TGI [54]: > 100 µM; TGI [55]: > 100 µM; TGI [56]: 51 µM; TGI [57]: > 100 µM; TGI [58]: > 100 µM; TGI [59]: > 100 µM
